“Also recorded” adds a separate entry of the source.
Columns and labels:
[1] = test system: primary mouse lung fibroblasts; experiment: PDGF-induced fibroblast chemotaxis (specificity control); type: cell-based
Procedure: (§1) Lungs from unchallenged C57BL/6, LPA1^−/− or littermate wild type mice were digested for 45 minutes at 37° C. in DMEM with 0.14 U/ml Liberase Blenzyme 3 (Roche), and 60 μg/ml DNAse 1 (Sigma), passed through a 70 μm filter, centrifuged at 540×g at 4° C. and plated in tissue culture flasks in DMEM with 15% (vol/vol) fetal bovine serum (FBS, Sigma). Cells were passaged when subconfluent following harvest with trypsin-EDTA (Cellgro®). To ensure that cultures contained almost purely fibroblasts, cells were used for experiments at passage 3 or higher.
(§2) After being serum-starved in DMEM without FBS overnight, subconfluent primary lung fibroblasts were harvested with non-enzymatic Cell Dissociation Solution (Sigma) to avoid possible proteolysis of surface chemoattractant receptors by trypsin. Harvested cells, at 5.0×10^5 cells/ml in 50 μl of DMEM, were placed in the top of a 48-well modified Boyden microchemotaxis chamber (NeuroProbe). Duplicate 30 μl aliquots of either: i) 18:1 LPA (Avanti Polar Lipids) or PDGF-BB (R&D Systems) in DMEM with 0.1% fatty acid-free bovine serum albumin (Sigma); or ii) BAL, or BAL fractions, diluted 1:4 in DMEM, were placed in the bottom wells of the chamber and separated from the cells by a 8-μm-pore, polyvinylpyrrolidone-free polycarbonate filter (Osmonics) that had been coated with fibronectin (Sigma). The apparatus was incubated at 37° C. and 5% CO2 for 3 hours, and cells migrating across the filter and adhering to the bottom side of the filter were stained with a commercially modified Wright's stain (Hema 3 stain set, Fisher Diagnostics) and counted, after cells remaining on the top side of the filter had been scraped off. Data from these experiments is presented as chemotactic indices, i.e. the number of cells migrating in response to BAL divided by the number of cells migrating to media controls.

[2] = test system: LPA1, LPA3, LPA2; conditions: literature (Ohta et al. 2003; Heise et al. 2001); cited from earlier work
[3] = test system: primary mouse lung fibroblasts; experiment: Fibroblast chemotaxis induced by BAL from mice on Day 5 post-bleomycin (modified Boyden chamber); type: cell-based
Procedure: Bronchoalveolar lavage (BAL) samples were obtained by lung lavage using two 0.5 ml aliquots of PBS. These samples were then provided for analysis of: i) chemoattractant activity, ii) LPA; iii) total protein; and iv) D-dimer concentrations. These BAL samples were centrifuged at 3000×g for 20 min at 4° C., and the supernatants transferred to siliconized low-binding eppendorf tubes (PGC Scientifics) for subsequent analysis.
as §1
as §2, with “Data from these experiments is presented as chemotactic indices, i.e. the number of cells migrating in response to BAL divided by the number of cells migrating to media controls.” left out

[4] = test system: primary mouse lung fibroblasts; experiment: LPA-induced fibroblast chemotaxis; type: cell-based; conditions: for effect of albumin on LPA-induced fibroblast chemotaxis: 0.1% fatty acid-free BSA, C57Bl/6 lung fibroblasts, FIG. 9b
Procedure: as §1, §2

[5] = test system: human fetal lung fibroblasts (HFL1 cells); experiment: Fibroblast chemotaxis induced by BAL samples from human IPF patients; type: cell-based; conditions: 1 μM Ki16425; FIG. 8d
Procedure: After being serum-starved in DMEM without FBS overnight, subconfluent primary lung fibroblasts were harvested with non-enzymatic Cell Dissociation Solution (Sigma) to avoid possible proteolysis of surface chemoattractant receptors by trypsin. Harvested cells, at 5.0×10^5 cells/ml in 50 μl of DMEM, were placed in the top of a 48-well modified Boyden microchemotaxis chamber (NeuroProbe). […] The apparatus was incubated at 37° C. and 5% CO2 for 3 hours, and cells migrating across the filter and adhering to the bottom side of the filter were stained with a commercially modified Wright's stain (Hema 3 stain set, Fisher Diagnostics) and counted, after cells remaining on the top side of the filter had been scraped off. […]
BAL samples were recovered from IPF patients and normal controls following instillation of sterile 0.9% saline by flexible fiberoptic bronchoscopy, performed both at the Instituto Nacional de Enfermedades Respiratorias and the Massachusetts General Hospital (MGH), as previously described. […] Cells growing at passage 3 or higher were analyzed as primary human BAL fibroblasts.

[6] = test system: sphingosine 1-phosphate receptors; conditions: literature (Ohta et al. 2003); cited from earlier work
[7] = test system: LPA-activated chloride channel; conditions: elevated levels; human lung fibroblasts; literature (Yin et al. 2005); cited from earlier work

CCCCCCCC/C=C\CCCCCCCC(=O)N[C@@H](COP(=O)(O)O)Cc1ccc(OCc2ccccc2)cc1 [VPC12249]
effect on PDGF-induced fibroblast chemotaxis ([1]; 100 μM VPC12249, PDGF 10^−9 M, FIG. 10): did not affect; also recorded: similar; also recorded: not affected | receptor subtype rank order of inhibition of LPA-induced responses [2]: LPA1≧LPA3>>LPA2 | effect on fibroblast chemotaxis induced by D5 post-bleomycin BAL ([3]; 100 μM VPC12249, C57BL/6 fibroblasts, FIG. 10): reduced chemotaxis; also recorded: significantly inhibited

fatty acid-free BSA: fatty acid-free bovine serum albumin (Sigma)
effect of albumin on LPA-induced fibroblast chemotaxis [4]: potentiated | effect of albumin on LPA-induced fibroblast chemotaxis ([4]; listed as methanol extracted fatty acid-free albumin): significantly potentiated

pertussis toxin [PTX]
effect of PTX pretreatment on LPA-induced fibroblast chemotaxis ([4]; PTX-pretreatment, LPA 10^−9-10^−7 M, FIG. 1i): inhibited chemotaxis; also recorded: reduced | effect of PTX pretreatment on PDGF-induced fibroblast chemotaxis ([1]; PTX-pretreatment of fibroblasts, FIG. 1b, 1i): not inhibited | effect of PTX pretreatment on BAL-induced fibroblast chemotaxis ([3]; PTX-pretreatment of fibroblasts, D5 BAL, FIG. 1b): inhibited chemotaxis; also recorded: completely inhibited

lysophosphatidic acid [LPA]
fibroblast chemotactic activity of LPA ([4]; LPA bound to albumin, FIG. 1h): chemotactic; also recorded: potent fibroblast chemoattractant

Cc1noc(-c2ccc(CSCCC(=O)O)cc2)c1NC(=O)OC(C)c1ccccc1Cl (stereo not drawn) [Ki16425]
effect on chemotaxis of HFL1 cells to BAL samples from IPF patients [5]: reduced chemotaxis; also recorded: significantly inhibited | effects on cellular responses mediated by sphingosine 1-phosphate receptors [6]: without appreciable effects | effect on PDGF-induced fibroblast chemotaxis ([1]; 1 μM Ki16425, 10^−8 or 10^−7 M PDGF, FIG. 5b): not affected; also recorded: similar; also recorded: did not affect | receptor subtype rank order of inhibition of LPA-induced responses [2]: LPA1≧LPA3>>LPA2 | effect on fibroblast chemotaxis induced by D5 post-bleomycin BAL ([3]; 1 μM Ki16425, C57BL fibroblasts, FIG. 5b): significantly inhibited

dioctyl-glycerol pyrophosphate
effect on activation of LPA-activated chloride channel [7]: blocked
